For 32 compounds, IC50 results are on record in patent publication US9573930B2 (Quanticel Pharmaceuticals, Inc., priority 2014, dated 2017).

A word on the pIC50: it is the negative decadic logarithm of the IC50, by convention in mol/L.

In the assay the target is full-length human LSD1 (Homo sapiens (Human), UniProt O60341). The experiment in a line: In vitro enzyme inhibition assay LSD-1 (TR-FRET). In kind it is biochemical. To be noted: H3K4me1-biotin peptide. How it is done:
This assay determines the ability of a test compound to inhibit LSD1 demethylase activity.
The enzymatic assay of LSD1 activity is based on Time Resolved-Fluorescence Resonance Energy Transfer (TR-FRET) detection.
The ability of the compounds disclosed herein to inhibit LSD1 activity was quantified and the respective IC50 value was determined.
In general terms: Time-resolved FRET reads energy transfer from a long-lived donor to a nearby acceptor.

pIC50: −log10 of the molar value.

Turning to `C#Cc1c(-c2ccc(C#N)c(F)c2)nc(N2CCC(N)CC2)n(C)c1=O` [Example 110], the pIC50 is greater than 7.00. Under `COc1ccc(-c2c(-c3ccc(C#N)c(F)c3)nc(N3CCC(N)CC3)n(CC(=O)O)c2=O)cc1` [Example 15, [2-(4-amino-piperidin-1-yl)-4-(4-cyano-3-fluoro-phenyl)-5-(4-methoxy-phenyl)-6-oxo-6H-pyrimidin-1-yl]-acetic acid] stands greater than 7.00. The result for `CNC1CCN(c2nc(-c3ccc(C#N)c(F)c3)c(-c3ccc(N(C)C)nc3)c(=O)n2C)CC1` [Example 83, 4-[5-(6-dimethylamino-pyridin-3-yl)-1-methyl-2-(4-methylamino-piperidin-1-yl)-6-oxo-1,6-dihydro-pyrimidin-4-yl]-2-fluoro-benzonitrile] reads greater than 7.00; that for `COc1ccc(-c2c(-c3ccc(C#N)c(F)c3)nc(N3CC(CN)C3)n(C)c2=O)cc1` [Example 69, 4-[2-(3-aminomethyl-azetidin-1-yl)-5-(4-methoxy-phenyl)-1-methyl-6-oxo-1,6-dihydro-pyrimidin-4-yl]-2-fluoro-benzonitrile], greater than 7.00. The result for `COCCOc1ccc(-c2c(-c3ccc(C#N)c(F)c3)nc(N3CCC(N)CC3)n(C)c2=O)cc1` [Example 98, 4-[2-(4-aminopiperidin-1-yl)-5-[4-(2-methoxyethoxy)phenyl]-1-methyl-6-oxopyrimidin-4-yl]-2-fluorobenzonitrile] reads greater than 7.00.

On to `CN(C)C1CCN(c2nc(-c3ccc(C#N)c(F)c3)c(-c3ccc4cn[nH]c4c3)c(=O)n2C)CC1` [Example 84, 4-[2-(4-dimethylamino-piperidin-1-yl)-5-(2H-indazol-6-yl)-1-methyl-6-oxo-1,6-dihydro-pyrimidin-4-yl]-2-fluoro-benzonitrile], for which the pIC50 is greater than 7.00. Under `COc1ccc(-c2c(-c3ccccc3C#N)nc(N3CCC(N)CC3)n(C)c2=O)cc1F` [Example 119, 2-[2-(4-aminopiperidin-1-yl)-5-(3-fluoro-4-methoxyphenyl)-1-methyl-6-oxopyrimidin-4-yl]benzonitrile] stands less than 5.00. Under `Cn1c(N2CCC(N)CC2)nc(-c2ccc(C#N)c(F)c2)c(-c2ccc3occc3c2)c1=O` [Example 18, 4-[2-(4-amino-piperidin-1-yl)-5-benzofuran-5-yl-1-methyl-6-oxo-1,6-dihydro-pyrimidin-4-yl]-2-fluoro-benzonitrile] stands greater than 7.00. Under `Cn1c(N2CCC(N)CC2)nc(-c2ccc(C#N)c(F)c2)c(-c2ccc(N3CCOCC3)nc2)c1=O` [Example 68, 4-[2-(4-amino-piperidin-1-yl)-1-methyl-5-(6-morpholin-4-yl-pyridin-3-yl)-6-oxo-1,6-dihydro-pyrimidin-4-yl]-2-fluoro-benzonitrile] stands greater than 7.00; under `COc1ccc(-c2c(-c3ccc(C#N)c(F)c3)nc(N(C)C3CCNCC3)n(C)c2=O)cc1` [Example 55, 2-fluoro-4-[5-(4-methoxy-phenyl)-1-methyl-2-(methyl-piperidin-4-yl-amino)-6-oxo-1,6-dihydro-pyrimidin-4-yl]-benzonitrile], greater than 7.00; under `Cn1c(N2CCC(N)CC2)nc(-c2ccc(C#N)cc2)c(-c2ccc(C(N)=O)c(F)c2)c1=O` [Example 41, 4-[2-(4-aminopiperidyl)-6-(4-cyanophenyl)-3-methyl-4-oxo(3-hydropyrimidin-5-yl)]-2-fluorobenzamide], greater than 7.00. Take `COc1ccc(-c2c(-c3ccc(C#N)c(F)c3)nc(N3CC[C@@H](N)C3)n(C)c2=O)cc1F` [Example 27, 4-[2-((3R)-3-aminopyrrolidinyl)-5-(3-fluoro-4-methoxyphenyl)-1-methyl-6-oxohydropyrimidin-4-yl]-2-fluorobenzenecarbonitrile]: the pIC50 is greater than 7.00. Under `CNC(=O)c1ccc(-c2c(-c3ccc(C#N)cc3)nc(N3CCC(N)CC3)n(C)c2=O)cc1F` [Example 40, {4-[2-(4-aminopiperidyl)-6-(4-cyanophenyl)-3-methyl-4-oxo(3-hydropyrimidin-5-yl)]-2-fluorophenyl}-N-methylcarboxamide] stands greater than 7.00. Under `COc1ccc(-c2c(-c3ccc(C#N)c(F)c3)nc(NC3CCNCC3)n(C)c2=O)cc1` [Example 53, 2-fluoro-4-[5-(4-methoxy-phenyl)-1-methyl-6-oxo-2-(piperidin-4-ylamino)-1,6-dihydro-pyrimidin-4-yl]-benzonitrile] stands greater than 7.00; under `Cn1c(N2CCC(N)CC2)nc(-c2ccc(C#N)c(F)c2)c(C#CC2CCCC2)c1=O` [Example 14, 4-[2-(4-amino-piperidin-1-yl)-5-cyclopentylethynyl-1-methyl-6-oxo-1,6-dihydro-pyrimidin-4-yl]-2-fluoro-benzonitrile], greater than 7.00. Under `Cc1ccc(-c2c(-c3ccc(C#N)c(F)c3)nc(N3CCC(N)CC3)n(C)c2=O)cn1` [Example 9] stands greater than 7.00. In the case of `Cn1c(N2CCC(N)CC2)nc(-c2ccc(C#N)c(F)c2)c(-c2ccc(F)c(F)c2)c1=O` [Example 104, 4-[2-(4-aminopiperidin-1-yl)-5-(3,4-difluorophenyl)-1-methyl-6-oxopyrimidin-4-yl]-2-fluorobenzonitrile], the negative-log IC50 (pIC50) is greater than 7.00. Under `COc1ccc(-c2c(-c3ccc(C#N)c(F)c3)nc(N3CCC(N(C)C)CC3)n(C)c2=O)cn1` [Example 92, 4-[2-[4-(dimethylamino)piperidin-1-yl]-5-(6-methoxypyridin-3-yl)-1-methyl-6-oxopyrimidin-4-yl]-2-fluorobenzonitrile] stands greater than 7.00; under `CN(C)C1CCN(c2nc(-c3ccc(C#N)c(F)c3)c(-c3ccc4c(cnn4C)c3)c(=O)n2C)CC1` [Example 72, 4-[2-(4-dimethylamino-piperidin-1-yl)-1-methyl-5-(1-methyl-1H-indazol-5-yl)-6-oxo-1,6-dihydro-pyrimidin-4-yl]-2-fluoro-benzonitrile], greater than 7.00; under `COc1ccc(-c2c(-c3ccc(C#N)c(F)c3)nc(N(C)C[C@@H]3CCNC3)n(C)c2=O)cc1` (stereo in doubt) [Example 56, 2-fluoro-4-[5-(4-methoxy-phenyl)-1-methyl-2-(methyl-pyrrolidin-3-ylmethyl-amino)-6-oxo-1,6-dihydro-pyrimidin-4-yl]-benzonitrile], greater than 7.00. With `Cn1c(N2CCC(N)CC2)nc(-c2ccc(C#N)c(F)c2)c(C#N)c1=O` [Example 19, 2-(4-amino-piperidin-1-yl)-4-(4-cyano-3-fluoro-phenyl)-1-methyl-6-oxo-1,6-dihydro-pyrimidine-5-carbonitrile], the pIC50 is greater than 7.00.

As for `CN(C)c1ccc(-c2c(-c3ccc(C#N)c(F)c3)nc(N3CCC(N)CC3)n(C)c2=O)cc1` [Example 59, 4-[2-(4-amino-piperidin-1-yl)-5-(4-dimethylamino-phenyl)-1-methyl-6-oxo-1,6-dihydro-pyrimidin-4-yl]-2-fluoro-benzonitrile], the pIC50 is greater than 7.00. Under `COc1ccc(-c2c(-c3ccc(C#N)cc3)nc(N3CCCNCC3)n(C)c2=O)cn1` [Example 62] stands greater than 7.00; under `Cn1c(N2CCC(N)CC2)nc(-c2ccc(C#N)cc2)c(-c2cnn(CC(F)(F)F)c2)c1=O` [Example 36, 4-{2-(4-amino-piperidin-1-yl)-1-methyl-6-oxo-5-[1-(2,2,2-trifluoro-ethyl)-1H-pyrazol-4-yl]-1,6-dihydro-pyrimidin-4-yl}-benzonitrile], greater than 7.00. The result for `Cc1ccc(-c2c(-c3ccc(C#N)c(F)c3)nc(N3CCC(N(C)C)CC3)n(C)c2=O)cn1` [Example 82, 4-[2-(4-dimethylamino-piperidin-1-yl)-1-methyl-5-(6-methyl-pyridin-3-yl)-6-oxo-1,6-dihydro-pyrimidin-4-yl]-2-fluoro-benzonitrile] reads greater than 7.00; that for `COc1ccc(-c2c(-c3ccc(C#N)c(F)c3)nc(N3CCC(N)CC3)n(C)c2=O)cn1` [Example 8, 4-[2-(4-amino-piperidin-1-yl)-5-(6-methoxy-pyridin-3-yl)-1-methyl-6-oxo-1,6-dihydro-pyrimidin-4-yl]-2-fluoro-benzonitrile], greater than 7.00. Under `COc1ccc(-c2c(-c3cccc(C#N)c3)nc(N3CCC(N)CC3)n(C)c2=O)cc1F` [Example 118, 3-[2-(4-aminopiperidin-1-yl)-5-(3-fluoro-4-methoxyphenyl)-1-methyl-6-oxopyrimidin-4-yl]benzonitrile] stands less than 5.00; under `COc1ccc(-c2c(-c3ccc(C#N)c(F)c3)nc(NC[C@H]3CCNC3)n(C)c2=O)cc1` [Example 51, 2-fluoro-4-{5-(4-methoxy-phenyl)-1-methyl-6-oxo-2-[(3S)-(pyrrolidin-3-ylmethyl)-amino]-1,6-dihydro-pyrimidin-4-yl}-benzonitrile], greater than 7.00; under `CN(C)c1ccc(-c2c(-c3ccc(C#N)cc3)nc(N3CCCNCC3)n(C)c2=O)cn1` [Example 67, 4-[2-[1,4]diazepan-1-yl-5-(6-dimethylamino-pyridin-3-yl)-1-methyl-6-oxo-1,6-dihydro-pyrimidin-4-yl]-benzonitrile], greater than 7.00. The compound `CNC1CCN(c2nc(-c3ccc(C#N)c(F)c3)c(-c3ccc(C)nc3)c(=O)n2C)CC1` [Example 21, 2-fluoro-4-[1-methyl-2-(4-methylamino-piperidin-1-yl)-5-(6-methyl-pyridin-3-yl)-6-oxo-1,6-dihydro-pyrimidin-4-yl]-benzonitrile] gave a pIC50 greater than 7.00. The result for `Cn1c(N2CCC(N)CC2)nc(-c2ccc(C#N)c(F)c2)c(-c2ccc3ccn(C)c3c2)c1=O` [Example 76, 4-[2-(4-amino-piperidin-1-yl)-1-methyl-5-(1-methyl-1H-indol-6-yl)-6-oxo-1,6-dihydro-pyrimidin-4-yl]-2-fluoro-benzonitrile] reads greater than 7.00; that for `CNCC1CN(c2nc(-c3ccc(C#N)c(F)c3)c(-c3ccc(OC)cc3)c(=O)n2C)C1` [Example 70, 2-fluoro-4-[5-(4-methoxy-phenyl)-1-methyl-2-(3-methylaminomethyl-azetidin-1-yl)-6-oxo-1,6-dihydro-pyrimidin-4-yl]-benzonitrile], greater than 7.00.
